Data as given in PubChem BioAssay AID493102 (Broad Institute, 2011).

tested on: SK-MEL-5 TRPM1-promoter luciferase reporter, 24 h; assay: reducers of TRPM1 reporter luminescence, concentration series – cell-based, SK-MEL-5, cherry-picked, set 4, MITF inhibitor project, dose response (AID 493102);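 note: actives lower the luciferase signal so the potency reflects inhibition of reporter expression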

SMILES	AC50 [µM]
COc1cccc(NC(=O)c2cc3c(=O)n4ccccc4nc3n(CC(C)C)c2=N)c1	7.02
CN(c1ccc2nc3ccccc3c(=O)n2n1)C1CCCCC1	1.29
N#CCc1ccc(NC(=O)/C=C/c2ccc([N+](=O)[O-])o2)cc1	4.97
CCOc1ccc(C(=O)Nc2cccc(C(=O)O)c2C)cc1Cl	8.56
COc1ccc(-c2cc(-c3ccccc3)c(C#N)c(S(C)=O)n2)cc1 (stereo unspecified)	11.8
Nc1ncnc(Sc2ncccn2)c1[N+](=O)[O-]	11.7
COc1cccc(C(=O)Nc2ccc3c(cc2=O)[C@@H](NC(C)=O)CCc2cc(OC)c(OC)c(OC)c2-3)c1	8.43
Cc1ccc(-c2c[n+](Cc3cccc(Cl)c3)c3n2CCC3)cc1	12.2
O=C(CCl)Nc1cccc(S(=O)(=O)N2CCCCCC2)c1	11.8
O=C(O)c1cc2ccccc2c(N=Nc2cccnc2)c1O	11.4
O=C(Nc1nc(-c2ccccn2)cs1)c1ccccc1-n1cnnn1	6.96
COc1ccc(CNCCC(c2ccc(F)cc2)c2ccc(OC)cc2)cc1 (stereo unspecified)	9.89
COc1ccc(C)cc1Nc1nc(N)c2cc(OC)c(OC)cc2n1	14.2
Cc1cccc(N2C(=O)NC(=O)/C(=C\C=C\c3ccco3)C2=O)c1	5.75
Cc1cc(C(=O)Nc2cccc(C(=O)O)c2)oc1C	4.35
COc1cccc2c1C(=O)C=C(C)C2=O	7.83
CC(NC(=O)C12CC3CC(CC(C3)C1)C2)C(=O)NN=Cc1ccc([N+](=O)[O-])o1 (stereo unspecified)	7.79
COc1ccc(S(=O)(=O)N2CCCCC2)cc1NC(=O)c1ccc([N+](=O)[O-])o1	9.14
COc1ccc(S(=O)(=O)Nc2ccc(O)c3ccccc23)cc1	9.07

SMILES	AC50 [µM]
Cc1ccccc1-c1nc(-c2ccccn2)no1	4.18
COc1cccc2sc(N3CCN(C(=O)c4ccc([N+](=O)[O-])o4)CC3)nc12	7.03
OC(CNCC(c1ccc(Cl)cc1Cl)c1c[nH]c2ccccc12)c1ccccc1 (stereo unspecified)	14.7
CC1(C)CC(NC(=O)c2ccc(Cl)c(S(=O)(=O)N(Cc3ccccc3)c3ccccc3)c2)CC(C)(C)N1	10.3
Cc1c(Cl)c([N+](=O)[O-])nn1Cc1ccc(C(=O)N/N=C\c2cc(Cl)ccc2O)o1	3.47
Cc1ccccc1OCC(=O)Nc1cccc(C(=O)O)c1	1.05
COc1cccc(C(=O)N/N=C(/c2ccccc2)c2ccccn2)c1	5.8
CCN(CC)CCCNC1=C(Cl)C(=O)c2ccccc2C1=O	1.79
Cc1onc(-c2ccccc2)c1C(=O)N/N=C/c1ccc([N+](=O)[O-])s1	5.35
N=c1n(CCN2CCCC2)c2ccccc2n1CC(O)c1ccc(Cl)c(Cl)c1 (stereo unspecified)	11.8
Clc1ccc(-c2c[n+](Cc3cccc(Cl)c3)c3n2CCC3)cc1	8.77
C=CCN1C(=O)/C(=C/c2cc(C)n(-c3cccnc3)c2C)C(=O)NC1=S	16.8
Cc1ccc2nc3cc([N+](=O)[O-])cc([N+](=O)[O-])c3cc2c1	8.46
CCOc1ccc(NC(=O)c2ccccn2)cc1	4.4
CCCN(CCC)C1=CC(=[N+]2CCCC2)CC(C)(C)C1	2.02
CC1CCCCC1NC(=O)/C(C#N)=C/c1ccccc1F (stereo unspecified)	14.4
COc1cc(OC)cc(C(=O)N[C@H](C(=O)Nc2nc3ccccc3[nH]2)C(C)C)c1	2.44
O=C(CCl)N1CCN(S(=O)(=O)c2ccc3c(c2)CCC3)CC1	20.8
CCOC(=O)N1CCC(NC(=O)C2CCCN(Cc3nc(-c4cccc(C)c4)oc3C)C2)CC1 (stereo unspecified)	34.9

SMILES	AC50 [µM]
O=C(CCl)Nc1cccc(S(=O)(=O)NC2=NCCCCC2)c1	7.85
O=C(CCl)Nc1cn(-c2ccccc2)nc1-c1ccccc1	14.5
CN1CCN(C2=C(NS(=O)(=O)c3ccccc3)C(=O)c3ccccc3C2=O)CC1	6.9
O=C(N/N=C\c1ccc([N+](=O)[O-])o1)C1COc2ccccc2O1 (stereo unspecified)	7.21
O=C(Nc1ccc(OC(F)(F)F)cc1)c1[nH]ncc1[N+](=O)[O-]	0.601
CCN(CC)S(=O)(=O)c1cccc(C(=O)N/N=C(\C)c2ccc(O)cc2O)c1	3.74
Cc1ccc(-c2c[n+](Cc3ccc(Cl)cc3)c3n2CCC3)cc1	14.2
COC(=O)c1ccc2c(c1O)C(=O)c1ccccc1C2=O	1.61
O=[N+]([O-])/C=C\c1ccc(N2CCCC2)c(F)c1	13.4
COc1cc2nc(SCC(=O)NCc3ccco3)n(Cc3ccc(Cl)cc3)c(=O)c2cc1OC	13.2
Cc1c(C#N)c(O)n(CCO)c(=O)c1N=Nc1ccc2c(c1)COC2=O	9.69
Cc1ccc(C(=O)N/C(=C\c2ccc(-c3ccccc3[N+](=O)[O-])o2)C(=O)NCCN(C)C)cc1	4.87
C/C(=N/NC(=O)C(O)(c1ccccc1)c1ccccc1)c1ccc([N+](=O)[O-])o1	9.84
CN(C)S(=O)(=O)c1cccc(NC(=O)CSc2nc3c(cc2C#N)C(=O)CC(C)(C)C3)c1	9.02
COc1ccccc1NC(=O)c1cnc(SCC(=O)NCC2CCCO2)n(C)c1=O (stereo unspecified)	8.88
O=C(Nc1ccc(Cl)c(S(=O)(=O)N2CCOCC2)c1)c1ccc(OCC2CCCO2)cc1 (stereo unspecified)	3.26
Cc1ccc(-c2cn3nc(C)c(C)nc3n2)cc1	5.3
O=C(N/N=C/c1cc(Cl)ccc1O)c1ccncc1	8.98
